{"source": "patent US20100311674A1", "about": "“PHARMACEUTICAL COMPOSITIONS WITH A MECHANISM OF MULTI-TARGET RECEPTOR RETROACTION FOR TREATING DEPRESSION” (Yu-Fen Chi, priority 2007, published 2010)", "assay_type_in_all_cases": "in vivo", "key": {"[1]": {"test_system": "ICR mice", "assay": "Mouse tail-hanging experiment (Experiment 1)", "method": "1.1 Experimental animals: ICR mice, male, 22.0±2 g of body weight, secondary, are provided by the Experimental Animal Science Department of Capital Medical University, Beijing. 1.2 Experiment pharmaceuticals: The pharmaceutical of Embodiment 1 is provided by Beijing Wonner Biotech. […] High dose of Embodiment 1 (80 mg/kg/d); 2. middle dose of Embodiment 1 (40 mg/kg/d); and 3. low dose of Embodiment 1 (20 mg/kg/d). 1.5.1 Group division and administration of drug: The mice are grouped randomly, and 10 mice are in each group. 1. High dose of Embodiment 1 (80 mg/kg, per oral (P.O.), administered for 7 days); 2. middle dose of Embodiment 1 (40 mg/kg, P.O., administered for 7 days); 3. low dose of Embodiment 1 (20 mg/kg, P.O., administered for 7 days); 4. […] After 1 hour of the last administration of drug, the mouse tail-hanging experiment is proceeded. 1.5.2 Experimental method: The mouse's tail (1 cm to the tail end) is taped on the wood strip higher than the platform for 5 cm and hung up for 6 minutes. The time of non-movement of the mouse for the last 5 minutes is recorded. 1.5.3 Statistic calculation: The experimental data are represented as X±SD, and the experimental result is calculated as analysis of variance (ANOVA) by SPSS 11.5 statistic software."}, "[2]": {"test_system": "ICR mice", "assay": "Mouse tail-hanging experiment (Experiment 5)", "method": "5.1 Experimental animals: ICR mice, male, 22.0±2 g of body weight, secondary, are provided by the Experimental Animal Science Department of Capital Medical University, Beijing. 5.2 Experiment pharmaceuticals: The pharmaceutical of Embodiment 3 is provided by Beijing Wonner Biotech. […] High dose of Embodiment 3 (80 mg/kg/d); 2. middle dose of Embodiment 3 (40 mg/kg/d); and 3. low dose of Embodiment 3 (20 mg/kg/d). 5.5.1 Group division and administration of drug: The mice are grouped randomly, and 10 mice are in each group. 1. High dose of Embodiment 3 (80 mg/kg, P.O., administered for 7 days); 2. middle dose of Embodiment 3 (40 mg/kg, P.O., administered for 7 days); 3. low dose of Embodiment 3 (20 mg/kg, P.O., administered for 7 days); 4. […] After 1 hour of the last administration of drug, the mouse tail-hanging experiment is proceeded. 5.5.2 Experimental method: The mouse's tail (1 cm to the tail end) is taped on the wood strip higher than the platform for 5 cm and hung up for 6 minutes. The time of non-movement of the mouse for the last 5 minutes is recorded. 5.5.3 Statistic calculation: The experimental data are represented as X+SD, and the experimental result is calculated as ANOVA by SPSS 11.5 statistic software."}, "[3]": {"test_system": "rat olfactory bulb lesion model", "assay": "Open field activity experiment of the rat olfactory bulb lesion model (Experiment 7)", "conditions": "2 mg/kg/d into the stomach, 24 days; within 3 minutes", "method": "Olfactory bulb lesion model: Health Wistar male rats, secondary, 330±20 g of body weight, are purchased from Beijing Vital River Experimental Animal Technology Ltd. Co. (The quality certificate number: SCXK (JING) 2002-2003).\nThe above pharmaceuticals are prepared with 0.5% of sodium carboxymethylcellulose (CMC-Na) for feeding into the stomach. Benzylpenicillin sodium for injection is the product of North China Pharmaceutical Huasheng Co. Ltd. (Lot: S0511204), and norepinephrine (NE) and 5-hydrotryptamine (5-HT) standards are the products of Sigma Co. Other reagents are all marketed.\n7.4.1 Group division and administration of drug: The rats are grouped randomly into 6 groups. 1. […]\n7.5.1 Open field activity experiment: The open field activity box (1 m×1 m×0.4 m) is constructed by the light blue plywood and the aluminum alloy frame. […] The rat is placed in the center of the central grids, and the rat's cross-grid number (the number of crossing into the neighboring gird more than 3 claws) and rat's standing number (two forelimbs leaving the ground for more than 1 cm) are calculated/observed within 3 minutes.\n7.6 Statistic calculation: The experimental data are represented as X+SD, and the experimental result is calculated as ANOVA by SPSS 11.5 statistic software."}, "[4]": {"test_system": "ICR mice", "assay": "Mouse swimming by compulsion experiment (Experiment 10)", "method": "10.1 Experiment pharmaceuticals: The pharmaceutical of Embodiment 5 is provided by Beijing Wonner Biotech. […] Above-mentioned pharmaceuticals are prepared with physiological saline for feeding into the stomach. 10.2 Experimental animals: ICR mice, male, 20.0±1 g of body weight, secondary, are provided by the Experimental Animal Science Department of Capital Medical University, Beijing. The quality certificate number of mice is SCXK (JING) 2006-2008. 10.4 Experimental method: The mouse group and the administration of drugs are like the mouse tail-hanging experiment. The experiment is proceeded in tested mouse in each group after 1 hour of the administration of drug. The mouse is trained to swim for 15 minutes before the experiment and on the eighth day. After 24 hours, the experiment is performed. The mouse is placed in the glass tank having 10 cm of the water depth, 14 cm of the diameter and at 25° C. of the water temperature. The accumulative time of non-movement of the mouse in the water for the last 5 minutes is recorded. 10.5 Statistic calculation: The experimental data are represented as X+SD, and the experimental result is calculated as one-way ANOVA by SPSS 11.5 statistic software."}, "[5]": {"conditions": "3 mg/kg P.O. 7 days, 1 h after last dose, last 5 of 6 min"}}}
{"smiles": "Fc1ccc([C@@H]2CCNC[C@H]2COc2ccc3c(c2)OCO3)cc1", "note": "[Paroxetine]", "values": [{"measurement": "Time of non-movement", "setting": "[1]; [5]", "value": "75.33 ± 22.91", "unit": "s"}, {"measurement": "Effect on time of non-movement after the mouse's tail is hung up (in words)", "setting": "[1]; high and middle doses of Embodiment 1, Paroxetine, significantly different from control", "value": "decrease the time of non-movement"}, {"measurement": "Time of non-movement", "setting": "[2]; [5]", "value": "75.33 ± 22.91", "unit": "s"}, {"measurement": "Effect on time of non-movement after the mouse's tail is hung up (in words)", "setting": "[2]; high and middle doses of Embodiment 3, Paroxetine, significantly different from control", "value": "decrease the time of non-movement"}, {"measurement": "Horizontal movement (cross-grid number)", "setting": "[3]", "value": "55.36 ± 25.96"}, {"measurement": "Vertical movement (standing number)", "setting": "[3]", "value": "14.36 ± 5.55"}, {"measurement": "Time of non-movement", "setting": "[4]; 3 mg/kg/d into the stomach, 1 h after dose, water 25° C., last 5 minutes", "value": "57.80 ± 38.07", "unit": "s"}, {"measurement": "Effect on accumulative time of non-movement, swimming by compulsion (in words)", "setting": "[4]; high, middle and low doses of Embodiment 5, Paroxetine", "value": "obviously decrease the accumulative time of non-movement"}]}
